The Papp A→B is the apparent permeability from the apical to the basolateral side of a cell layer. High values mean fast passage, low ones slow passage. In general, Papp B→A refers to the apparent permeability from the basolateral to the apical side of a cell layer. As a reminder, the IC50 is the concentration that inhibits the measured activity by half. Low readings indicate greater potency, high ones weaker potency. For orientation: bioavailability means the share of a dose that reaches the circulation, judged against a reference dose that is usually intravenous. A higher bioavailability goes with good availability.

A short description of one data set: Caco-2 permeability. Format: in vitro ADME. Conditions: human; for Papp A→B: A2B; for Papp B→A: B2A. The source says: Some ASBT inhibitors may show improved or optimal permeability. The permeability may be measured in Caco2 cells, and values are given as Papp (apparent permeability) values in cm/s. In some embodiments, the permeability is between about 0.01×10^−6 cm/s and about 50×10^−6 cm/s, such as between about 0.05×10^−6 cm/s and about 40×10^−6 cm/s, or such as between about 0.1×10^−6 cm/s and about 30×10^−6 cm/s. In some embodiments, the permeability is greater than at least about 0.1×10^−6 cm/s, such as greater than about 0.2×10^−6 cm/s, such as greater than about 0.4×10^−6 cm/s, such as greater than about 0.7×10^−6 cm/s, such as greater than about 1.0×10^−6 cm/s, such as greater than about 2×10^−6 cm/s, such as greater than about 3×10^−6 cm/s, such as greater than about 5×10^−6 cm/s, such as greater than about 7×10^−6 cm/s, such as greater than about 10×10^−6 cm/s, such as greater than about 15×10^−6 cm/s.
(§1) ASBT inhibitor compounds 1 to 5 were used in the experiments described herein. Values were determined using the assays described in e.g. WO 2020/161217.
A general note: Caco-2 monolayers are a common model of the intestinal barrier.

Data set [1] relates to BDL mice. Kind of data set: Comparison of ASBT inhibitors in BDL mice, 5 days treatment (Example 6). Conditions: male BDL mice; 10 mg/kg p.o. once daily for 5 days. The format is in vivo, mice (C57BL/6n). The protocol:
Male mice (C57BL/6n) were used. After completion of quarantine and acclimatization period, animals were randomized based on body weight into experimental groups (n=10 mice per bile duct ligation group). On day 1, animals underwent bile duct ligation. The ASBT inhibitors were administered p.o. once daily. The animals were weighed every day. At day 6, animals were moved to individual cages for cumulative overnight fecal collection (day 6 to 7). At day 8, blood samples were taken 2 and 6 hours after the final dose. Animals were then sacrificed and samples (urine and blood; liver, kidney and ileum tissues) were collected and analysed.

In a further data set the target is T1, hIBAT (Homo sapiens, UniProt Q12908).
T1 sequence (Q12908 1-348): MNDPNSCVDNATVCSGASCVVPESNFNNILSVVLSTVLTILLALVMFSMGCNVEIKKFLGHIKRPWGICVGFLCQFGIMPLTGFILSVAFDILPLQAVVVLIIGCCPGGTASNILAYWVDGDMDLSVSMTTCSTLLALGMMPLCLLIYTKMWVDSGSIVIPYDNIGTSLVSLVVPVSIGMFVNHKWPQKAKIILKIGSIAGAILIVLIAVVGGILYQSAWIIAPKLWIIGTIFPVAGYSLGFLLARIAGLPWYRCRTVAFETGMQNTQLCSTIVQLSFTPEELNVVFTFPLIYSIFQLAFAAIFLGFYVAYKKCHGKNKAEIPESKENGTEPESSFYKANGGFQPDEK
Kind of data set: hIBAT potency (IC50). Format: cell-based. The protocol:
as §1

For data set [2] the following is noted: in vivo; cited from earlier work.
Data set [3] has as its system BDL mice. Kind of data set: Therapeutic time window in BDL mice, 28 days treatment (Example 4). Format: in vivo, mice (C57BL/6n). The following applies: 60 mg/kg p.o. twice daily for 28 days. The protocol:
The effect of the time period before start of treatment with Compound 1 on kidney injury in BDL mice was evaluated.
Male mice (C57BL/6n) were used. After completion of quarantine and acclimatization period, animals were randomized based on body weight into experimental groups (n=7 mice per group). On day 0, animals underwent bile duct ligation or sham surgery. From day 3, 21, 42 or 63, animals were treated for 28 days with either vehicle or with Compound 1 at a dose of 60 mg/kg, as shown in Table 4 below. Compound 1 was administered p.o. twice per day. The animals were weighed every day. Blood, urine, bile and tissue samples were collected at the end of the experiment.

For data set [4], the system named is BDL mice. As to the kind of experiment: Short-term effect of ASBT inhibition on urinary bile acid excretion in BDL mice (Example 2). Format: in vivo, mice (C57BL/6n). Conditions: female BDL mice; 15, 30, 60 or 120 mg/kg p.o. twice daily for 5 days (day 7-11); all treated groups. The protocol: The short-term effect of oral administration of Compound 1 to BDL mice on the urinary excretion of bile acids was evaluated.
Female mice (C57BL/6n) were used. After completion of quarantine and acclimatization period, animals were randomized based on body weight into experimental groups (n=4-7 mice in each). On day 0, animals underwent bile duct ligation. Compound 1 was administered orally by gavage twice per day. Spontaneous urine samples were collected before BDL and on days 7, 8, 9, 10, 11 and 12 after BDL by cannulation of the urinary bladder, and the concentration of bile acids in urine was determined.

Data set [5] concerns BDL mice. Kind of data set: Comparison of ASBT inhibitors in BDL mice, 19 days treatment (Example 5). Format: in vivo, mice (C57BL/6n). Conditions: male BDL mice; for serum bile acids / urine bile acids: p.o. once daily for 19 days, Compound 1 60 mg/kg, Compound 2 3 and 10 mg/kg; for urinary NGAL: p.o. once daily, after treatment for 18 days. The protocol:
Male mice (C57BL/6n) were used. After completion of quarantine and acclimatization period, animals were randomized based on body weight into experimental groups (n=12 mice per bile duct ligation group along with 5 sham operated controls). On day 0, animals underwent bile duct ligation or sham surgery. The ASBT inhibitors were administered p.o. once daily. The animals were weighed every day. At day 21, blood samples were taken 2 and 6 hours after the final dose. At day 24, animals were sacrificed and samples (urine and blood; liver, kidney, heart and spleen tissues) were collected and analysed.

Data set [6] has as its system BDL mice. Kind of data set: Long-term effect on cholemic nephropathy in bile duct ligated mice, 6 weeks (Example 3). Format: in vivo, mice (C57BL/6n). The protocol:
The long-term effect of Compound 1 on kidney injury in BDL mice was studied by histology, clinical chemistry and intravital imaging.
[…] […] On day 0, animals underwent bile duct ligation or sham surgery. Compound 1 was administered orally by gavage twice per day. Spontaneous urine samples were collected before BDL as well as on day 1 and weeks 1, 2, 3, 4, 5, and 6 after BDL by cannulation of the urinary bladder. Blood, urine, bile and tissue samples were collected at the end (week 6) of the experiment.

A further data set in a line: Bioavailability in mice. The following applies: C57BL/6, mouse, in vivo. The protocol: as §1
The mark [7] stands for this setting: male BDL mice, dosing started on Day 3.
[8] abbreviates: female BDL mice, 60 mg/kg p.o. twice daily for 6 weeks.

Regarding `CCCCC1(CC)CN(c2ccc(F)cc2)c2cc(SC)c(OCC(=O)O)cc2S(=O)(=O)C1` (stereo not shown) [Compound 5, 2-((3-butyl-3-ethyl-5-(4-fluorophenyl)-7-(methylthio)-1,1-dioxido-2,3,4,5-tetrahydro-1,5-benzothiazepin-8-yl)oxy)acetic acid], in the data set “Caco-2 permeability”, the Papp A→B came out at 8.7 ×10⁻⁶ cm/s and the Papp B→A was found to be 12.9 ×10⁻⁶ cm/s. Also, the “urinary NGAL” value in the data set with BDL mice [1] was “significantly reduced”. On hIBAT, this molecule returned a half-maximal inhibitory concentration (IC50) of 2.4 nM.
In the data set “Caco-2 permeability”, `CCCCC1(C)CN(c2ccccc2)c2cc(SC)c(CSCC(=O)O)cc2S(=O)(=O)C1` (stereo not shown) [Compound 3, 2-(((3-butyl-3-methyl-7-(methylthio)-1,1-dioxido-5-phenyl-2,3,4,5-tetrahydro-1,5-benzothiazepin-8-yl)methyl)thio)acetic acid] yielded a Papp A→B of 29.3 ×10⁻⁶ cm/s and a Papp B→A of 25.3 ×10⁻⁶ cm/s.
Turning to `CCCCC1(CCCC)CS(=O)(=O)c2ccc(N(C)C)cc2[C@@H](c2ccc(OCc3ccc(C[N+]45CCN(CC4)CC5)cc3)cc2)[C@H]1O.[Cl-]` [maralixibat, 1-{[4-({4-[(4R,5R)-3,3-dibutyl-7-(dimethylamino)-4-hydroxy-1,1-dioxo-2,3,4,5-tetrahydro-1H-1λ^6-benzothiepin-5-yl]phenoxy}methyl)phenyl]methyl}-1,4-diazabicyclo[2.2.2]octan-1-ium chloride], in data set [2], the “systemic absorption following oral administration” value is “less than 10%”.
For the molecule `CCCCC1(CC)CN(c2ccccc2)c2cc(SC)c(O/C=C(\F)C(=O)O)cc2S(=O)(=O)C1` (stereo not shown) [Compound 1, (Z)-3-((3-butyl-3-ethyl-7-(methylthio)-1,1-dioxido-5-phenyl-2,3,4,5-tetrahydro-1,5-benzothiazepin-8-yl)oxy)-2-fluoroacrylic acid], in the data set with BDL mice [3] (dosing started on Day 21), the body weight loss result is recorded as “reversed body weight loss” and the renal injury entry is listed as “almost completely reversed”. In addition, in the data set with BDL mice [3] (dosing started on Day 42), the body weight loss entry is given as “reversed body weight loss” and the renal injury result was “partially reversed”. Also, the “effect on renal injury and body weight loss” value in the data set with BDL mice [3] (dosing started on Day 63) is listed as “minimal effects”. Besides, in the data set with BDL mice [3] (setting [7]), the body weight loss entry was “reversed body weight loss” and the renal injury entry is recorded as “completely prevented”. Also, the “concentrations of bile acids in urine, fold higher after treatment” value with BDL mice [4] is given as “at least 20 fold”. In the data set with BDL mice [5], the serum bile acids result was “lower serum bile acids”, the urine bile acids result was “increase urine bile acids” and the “urinary NGAL” value is “lowered urinary NGAL”. Besides, in the data set on BDL mice [6] (setting [8]), the “body weight loss due to BDL” value is recorded as “strongly ameliorated”; the “severe fibrosis and cystic dilatation of renal tubules (histology)” value was “antagonized by Compound 1 almost to the levels of control animals without BDL”; the “urinary BA” value is “massively increased”; the “urinary KIM-1” value was “strongly reduced”. Further, in the data set on BDL mice [6] (setting [8]), the “urinary NGAL” value is recorded as “strongly reduced” and the “vascular leakage in kidneys (intravital imaging with Evans blue)” value is “completely reversed”. Besides, the “mortality in the 6 week-period” value in the data set with BDL mice [6] (female BDL mice, 60 mg/kg p.o. twice daily, about 50% died in BDL-vehicle group) is “no mortality”. In the data set with BDL mice [6] (male mice, 6 per group), the “therapeutic efficacy in similarly designed study with male mice” value is listed as “confirmed the therapeutic efficacy”. Also, the “decrease of serum BA” value in the data set on BDL mice [6] (po, 60 mg/kg, 1008 h) is “about 90%”. Further, in “Bioavailability in mice”, the bioavailability stood at 44%. This molecule also showed an IC50 against hIBAT of 21 nM.
In the data set “Caco-2 permeability”, `CCCCC1(CCCC)CN(c2ccccc2)c2cc(SC)c(OCCC(=O)O)cc2S(=O)(=O)N1` [Compound 2, 3-((3,3-dibutyl-7-(methylthio)-1,1-dioxido-5-phenyl-2,3,4,5-tetrahydro-1,2,5-benzothiadiazepin-8-yl)oxy)propanoic acid] had a Papp A→B of 9.2 ×10⁻⁶ cm/s and a Papp B→A of 0.9 ×10⁻⁶ cm/s. For the same molecule, in the data set with BDL mice [5], the serum bile acids entry is reported as “lower serum bile acids”, the urine bile acids entry is given as “increase urine bile acids” and the “urinary NGAL” value was “lowered urinary NGAL”.

Source of the values: patent US20240207286A1, “ASBT INHIBITORS IN THE TREATMENT OF RENAL DISEASES” (Albireo AB, priority 2022, published 2024).
